Here are results for 14 compounds from patent US12643871B2, “Aryl formamide compound containing chiral sulfur oxide or salt thereof, preparation method, herbicidal composition and use thereof” (Qingdao Kingagroot Chemical Compound Co., Ltd., priority 2019, dated 2026).

What all share (assay): Weeding effect in post-emergence stage
Format in all cases: in vivo
What all share (settings): 250 g/ha; 2 leaf stage; 15 days after application; fresh weight control rate

One assay concerns Abutilon theophrasti. In a few lines:
(§1)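 Reported levels reflect fresh weight growth control rate banded 0 (<5%) through 5 (>85%), averaged over three repetitions. Treatment: foliar spray of 2-leaf-stage greenhouse plants at 15 to 500 g/ha, with 1.5 liter/ha methyl oleate synergist; assessment 15 days after application.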

For a further assay, the system named is Amaranthus retroflexus. In a few lines:
as §1

A further assay deals with Digitaria sanguinalis. In a few lines: as §1
The next assay relates to Echinochloa crusgali. In a few lines:
as §1

The next assay deals with Setaria viridis. In a few lines: as §1

`COc1c(C(=O)Nc2nnc(C)o2)ccc(C(F)(F)F)c1[S@+]([O-])CCCO` [Compound 335]: the “weeding effect in post-emergence stage, activity level (growth control rate), Abutilon theophrasti” value (from here on “weeding effect … Abutilon theophrasti”) with Abutilon theophrasti was 5 (Level 5: growth control rate is above 85%). In addition, the “weeding effect in post-emergence stage, activity level (growth control rate), Amaranthus retroflexus” value (from here on “weeding effect … Amaranthus retroflexus”) in the assay on Amaranthus retroflexus is 5 (Level 5: growth control rate is above 85%). In the assay on Digitaria sanguinalis, the “weeding effect in post-emergence stage, activity level (growth control rate), Digitaria sanguinalis” value (“weeding effect … Digitaria sanguinalis” below) is 5 (Level 5: growth control rate is above 85%). The “weeding effect in post-emergence stage, activity level (growth control rate), Echinochloa crusgali” value (from here on “weeding effect … Echinochloa crusgali”) in the assay with Echinochloa crusgali is 5 (Level 5: growth control rate is above 85%). The “weeding effect in post-emergence stage, activity level (growth control rate), Setaria viridis” value (from here on “weeding effect … Setaria viridis”) in the assay on Setaria viridis is listed as 5 (Level 5: growth control rate is above 85%).

With `Cc1nnc(NC(=O)c2ccc(C(F)(F)F)c([S@+]([O-])CCC(F)F)c2F)o1` [Compound 28], in the assay on Abutilon theophrasti, the “weeding effect … Abutilon theophrasti” value is given as 5 (Level 5: growth control rate is above 85%). Also, in the assay with Amaranthus retroflexus, the “weeding effect … Amaranthus retroflexus” value was 5 (Level 5: growth control rate is above 85%). The “weeding effect … Digitaria sanguinalis” value with Digitaria sanguinalis is 5 (Level 5: growth control rate is above 85%). Besides, in the assay with Echinochloa crusgali, the “weeding effect … Echinochloa crusgali” value was 5 (Level 5: growth control rate is above 85%). In addition, in the assay on Setaria viridis, the “weeding effect … Setaria viridis” value was 5 (Level 5: growth control rate is above 85%).

Consider `CCC[S@@+]([O-])c1c(C(F)(F)F)ccc(C(=O)Nc2nnc(C)o2)c1Cl` [Compound 543], for which the “weeding effect … Abutilon theophrasti” value in the assay with Abutilon theophrasti is on record as 5 (Level 5: growth control rate is above 85%). The “weeding effect … Amaranthus retroflexus” value in the assay on Amaranthus retroflexus is listed as 5 (Level 5: growth control rate is above 85%). Also, in the assay on Digitaria sanguinalis, the “weeding effect … Digitaria sanguinalis” value was 5 (Level 5: growth control rate is above 85%). The “weeding effect … Echinochloa crusgali” value in the assay on Echinochloa crusgali is listed as 5 (Level 5: growth control rate is above 85%). Further, in the assay with Setaria viridis, the “weeding effect … Setaria viridis” value is reported as 5 (Level 5: growth control rate is above 85%).

For `CC[S@@+]([O-])c1c(C(F)(F)F)ccc(C(=O)Nc2nnco2)c1F` [Compound 574], the “weeding effect … Abutilon theophrasti” value in the assay with Abutilon theophrasti is reported as 5 (Level 5: growth control rate is above 85%). Also, the “weeding effect … Amaranthus retroflexus” value in the assay on Amaranthus retroflexus is recorded as 5 (Level 5: growth control rate is above 85%). Moreover, the “weeding effect … Digitaria sanguinalis” value in the assay on Digitaria sanguinalis was 5 (Level 5: growth control rate is above 85%). The “weeding effect … Echinochloa crusgali” value in the assay on Echinochloa crusgali was 5 (Level 5: growth control rate is above 85%). For the same compound, the “weeding effect … Setaria viridis” value in the assay on Setaria viridis is listed as 5 (Level 5: growth control rate is above 85%).

As to `Cc1nnc(NC(=O)c2ccc(C(F)(F)F)c([S@+]([O-])CCOC(F)F)c2F)o1` [Compound 164], the “weeding effect … Abutilon theophrasti” value with Abutilon theophrasti is on record as 5 (Level 5: growth control rate is above 85%). In addition, the “weeding effect … Amaranthus retroflexus” value in the assay with Amaranthus retroflexus was 5 (Level 5: growth control rate is above 85%). The “weeding effect … Digitaria sanguinalis” value with Digitaria sanguinalis is given as 5 (Level 5: growth control rate is above 85%). In addition, the “weeding effect … Echinochloa crusgali” value with Echinochloa crusgali is recorded as 5 (Level 5: growth control rate is above 85%). Besides, the “weeding effect … Setaria viridis” value with Setaria viridis was 5 (Level 5: growth control rate is above 85%).

`Cc1nnc(NC(=O)c2ccc(C(F)(F)F)c([S@+]([O-])CC(C)F)c2F)o1` (stereo partly shown) [Compound 27]: the “weeding effect … Abutilon theophrasti” value in the assay with Abutilon theophrasti is reported as 5 (Level 5: growth control rate is above 85%). In the assay with Amaranthus retroflexus, the “weeding effect … Amaranthus retroflexus” value is listed as 5 (Level 5: growth control rate is above 85%). The “weeding effect … Digitaria sanguinalis” value in the assay with Digitaria sanguinalis was 5 (Level 5: growth control rate is above 85%). Besides, the “weeding effect … Echinochloa crusgali” value with Echinochloa crusgali is given as 5 (Level 5: growth control rate is above 85%). Moreover, in the assay on Setaria viridis, the “weeding effect … Setaria viridis” value is reported as 5 (Level 5: growth control rate is above 85%).

With `CSc1c(C(=O)Nc2nnc(C)o2)ccc(C(F)(F)F)c1[S@+]([O-])CC(F)(F)F` [Compound 556], in the assay with Abutilon theophrasti, the “weeding effect … Abutilon theophrasti” value is recorded as 5 (Level 5: growth control rate is above 85%). Further, the “weeding effect … Amaranthus retroflexus” value in the assay on Amaranthus retroflexus was 5 (Level 5: growth control rate is above 85%). The “weeding effect … Digitaria sanguinalis” value in the assay with Digitaria sanguinalis was 5 (Level 5: growth control rate is above 85%). Further, the “weeding effect … Echinochloa crusgali” value with Echinochloa crusgali is 5 (Level 5: growth control rate is above 85%). Besides, the “weeding effect … Setaria viridis” value in the assay with Setaria viridis is given as 5 (Level 5: growth control rate is above 85%).

For `O=C(Nc1nnco1)c1ccc(C(F)(F)F)c([S@+]([O-])CCC(F)(F)F)c1F` [Compound 581], the “weeding effect … Abutilon theophrasti” value with Abutilon theophrasti is given as 5 (Level 5: growth control rate is above 85%). Also, the “weeding effect … Amaranthus retroflexus” value in the assay on Amaranthus retroflexus is on record as 5 (Level 5: growth control rate is above 85%). For the same compound, the “weeding effect … Digitaria sanguinalis” value in the assay with Digitaria sanguinalis is 5 (Level 5: growth control rate is above 85%). Besides, in the assay with Echinochloa crusgali, the “weeding effect … Echinochloa crusgali” value is 5 (Level 5: growth control rate is above 85%). Further, the “weeding effect … Setaria viridis” value in the assay with Setaria viridis is 5 (Level 5: growth control rate is above 85%).

For `CCC[S@@+]([O-])c1c(C(F)F)ccc(C(=O)Nc2nnnn2C)c1OC` [Compound 866], the “weeding effect … Abutilon theophrasti” value in the assay with Abutilon theophrasti is given as 5 (Level 5: growth control rate is above 85%). Moreover, the “weeding effect … Amaranthus retroflexus” value in the assay on Amaranthus retroflexus is on record as 5 (Level 5: growth control rate is above 85%). In the assay on Digitaria sanguinalis, the “weeding effect … Digitaria sanguinalis” value is 5 (Level 5: growth control rate is above 85%). Further, the “weeding effect … Echinochloa crusgali” value with Echinochloa crusgali is on record as 5 (Level 5: growth control rate is above 85%). Besides, the “weeding effect … Setaria viridis” value in the assay with Setaria viridis is given as 5 (Level 5: growth control rate is above 85%).

For `COCCC[S@@+]([O-])c1c(C(F)(F)F)ccc(C(=O)Nc2nnc(C)o2)c1OC` [Compound 345], the “weeding effect … Abutilon theophrasti” value in the assay on Abutilon theophrasti was 5 (Level 5: growth control rate is above 85%). Moreover, the “weeding effect … Amaranthus retroflexus” value in the assay with Amaranthus retroflexus is 5 (Level 5: growth control rate is above 85%). Further, in the assay on Digitaria sanguinalis, the “weeding effect … Digitaria sanguinalis” value is 5 (Level 5: growth control rate is above 85%). In addition, the “weeding effect … Echinochloa crusgali” value in the assay with Echinochloa crusgali is reported as 5 (Level 5: growth control rate is above 85%). Besides, in the assay with Setaria viridis, the “weeding effect … Setaria viridis” value is on record as 5 (Level 5: growth control rate is above 85%).

Turning to `Cc1nnc(NC(=O)c2ccc(C(F)(F)F)c([S@+]([O-])C(F)(C(F)(F)F)C(F)(F)F)c2F)o1` [Compound 32], the “weeding effect … Abutilon theophrasti” value in the assay on Abutilon theophrasti is recorded as 5 (Level 5: growth control rate is above 85%). For the same compound, in the assay with Amaranthus retroflexus, the “weeding effect … Amaranthus retroflexus” value is on record as 5 (Level 5: growth control rate is above 85%). In addition, the “weeding effect … Digitaria sanguinalis” value with Digitaria sanguinalis was 5 (Level 5: growth control rate is above 85%). Also, the “weeding effect … Echinochloa crusgali” value in the assay on Echinochloa crusgali was 5 (Level 5: growth control rate is above 85%). Also, the “weeding effect … Setaria viridis” value in the assay on Setaria viridis is reported as 5 (Level 5: growth control rate is above 85%).

On to `CCOC(=O)OC(C)N(C(=O)c1ccc(C(F)(F)F)c([S+]([O-])CC)c1OC)c1nnc(C)o1` (mixture of isomers) [Compound 422], for which the “weeding effect … Abutilon theophrasti” value in the assay with Abutilon theophrasti is on record as 5 (Level 5: growth control rate is above 85%). The “weeding effect … Amaranthus retroflexus” value in the assay with Amaranthus retroflexus is given as 5 (Level 5: growth control rate is above 85%). The “weeding effect … Digitaria sanguinalis” value in the assay on Digitaria sanguinalis is recorded as 5 (Level 5: growth control rate is above 85%). For the same compound, the “weeding effect … Echinochloa crusgali” value in the assay on Echinochloa crusgali is listed as 5 (Level 5: growth control rate is above 85%). The “weeding effect … Setaria viridis” value in the assay with Setaria viridis was 5 (Level 5: growth control rate is above 85%).

Consider `CC(C)C[S@@+]([O-])c1c(C(F)(F)F)ccc(C(=O)Nc2nnco2)c1F` [Compound 577], for which the “weeding effect … Abutilon theophrasti” value with Abutilon theophrasti is listed as 5 (Level 5: growth control rate is above 85%). The “weeding effect … Amaranthus retroflexus” value with Amaranthus retroflexus is recorded as 5 (Level 5: growth control rate is above 85%). Besides, the “weeding effect … Digitaria sanguinalis” value with Digitaria sanguinalis is recorded as 5 (Level 5: growth control rate is above 85%). The “weeding effect … Echinochloa crusgali” value with Echinochloa crusgali is reported as 5 (Level 5: growth control rate is above 85%). Also, in the assay with Setaria viridis, the “weeding effect … Setaria viridis” value is 5 (Level 5: growth control rate is above 85%).

For `CCCOc1c(C(=O)Nc2nnc(C)o2)ccc(C(F)(F)F)c1[S@+]([O-])CCC` [Compound 533], in the assay with Abutilon theophrasti, the “weeding effect … Abutilon theophrasti” value is reported as 5 (Level 5: growth control rate is above 85%). For the same compound, the “weeding effect … Amaranthus retroflexus” value with Amaranthus retroflexus is recorded as 5 (Level 5: growth control rate is above 85%). Also, the “weeding effect … Digitaria sanguinalis” value in the assay on Digitaria sanguinalis was 5 (Level 5: growth control rate is above 85%). Further, the “weeding effect … Echinochloa crusgali” value in the assay with Echinochloa crusgali is 5 (Level 5: growth control rate is above 85%). The “weeding effect … Setaria viridis” value in the assay on Setaria viridis was 5 (Level 5: growth control rate is above 85%).
